pEC50, pIC50: −log10 of the molar value. Where a name gives a salt, the structure may show the parent alone. Read-outs that look alike come from different tables or passages of the source.
Assays:
STAT6 = target: T1, STAT6 (Homo sapiens, UniProt P42226); experiment: STAT6 Reporter Luciferase Assay (IL-13 stimulated HaCaT keratinocyte NanoLuc reporter cells); assay type: cell-based; conditions: read-out: Reporter EC50
T1 construct: stably transfected HaCaT keratinocyte cell line, which expresses NanoLuc luciferase reporter gene under the transcriptional control of the STAT6 responsive promoter; endogenous in cells; host or cells: HaCaT keratinocyte reporter cell line (stably transfected with a NanoLuc reporter)
T1 sequence (P42226 1-847): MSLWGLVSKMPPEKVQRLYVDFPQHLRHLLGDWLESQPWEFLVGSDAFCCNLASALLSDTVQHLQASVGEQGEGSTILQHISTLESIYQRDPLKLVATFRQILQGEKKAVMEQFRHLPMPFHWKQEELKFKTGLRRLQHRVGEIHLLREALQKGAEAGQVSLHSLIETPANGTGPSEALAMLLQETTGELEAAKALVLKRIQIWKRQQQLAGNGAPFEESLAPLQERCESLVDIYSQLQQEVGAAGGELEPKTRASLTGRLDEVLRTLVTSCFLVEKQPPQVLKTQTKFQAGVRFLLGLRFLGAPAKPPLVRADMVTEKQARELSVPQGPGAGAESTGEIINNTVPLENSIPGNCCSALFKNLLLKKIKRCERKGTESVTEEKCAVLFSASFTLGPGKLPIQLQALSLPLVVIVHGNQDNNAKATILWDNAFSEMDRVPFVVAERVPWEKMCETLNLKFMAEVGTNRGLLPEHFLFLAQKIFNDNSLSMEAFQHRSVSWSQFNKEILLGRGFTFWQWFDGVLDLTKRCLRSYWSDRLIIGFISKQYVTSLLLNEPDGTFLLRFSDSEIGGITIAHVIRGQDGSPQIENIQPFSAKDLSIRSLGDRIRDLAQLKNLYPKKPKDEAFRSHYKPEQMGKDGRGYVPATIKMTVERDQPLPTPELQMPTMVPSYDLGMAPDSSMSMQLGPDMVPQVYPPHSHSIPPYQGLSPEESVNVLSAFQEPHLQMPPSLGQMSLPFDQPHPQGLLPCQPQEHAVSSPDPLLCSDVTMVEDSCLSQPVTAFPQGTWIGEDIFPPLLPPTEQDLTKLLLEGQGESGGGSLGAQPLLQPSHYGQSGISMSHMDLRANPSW
How it was run: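 HaCaT IL-13Ra2-promoter NanoLuc reporter; cpd 2 h 37 °C in DMEM/2% HI FBS; IL-13 0.12 nM final, 4 h; Nano-Glo luminescence.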

[1] = system: CCL17 secretion in peripheral human whole blood; experiment: Human Whole Blood (HWB) CCL17 TR-FRET Assay (IL-13 stimulated CCL17 secretion); assay type: cell-based
How it was run: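 Heparin-anticoagulated human blood; cpd 11-pt 3-fold dilution, duplicate, 2 h 37 °C preinc; IL-13 10 ng/mL final, 48 h 37 °C; spin, serum CCL17 by TR-FRET ELISA, 16 h RT, 665/615 ratio; IC50.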

[2] = IL-13 stimulated HaCaT STAT6 NanoLuc reporter cells
[3] = human whole blood, 10 ng/mL IL13, 48 hours
[4] = Homo sapiens, 48 h, human whole blood, 10 ng/mL IL13, 48 hours
[5] = STAT6 NanoLuc luciferase reporter, IL-13 stimulated HaCaT keratinocyte cells
[6] = Homo sapiens, 48 h, inhibition of CCL17 secretion in human whole blood, 10 ng/mL IL13, 48 hours

| Structure (SMILES) | pEC50 (STAT6; [2]) | pEC50 (STAT6; [5]) | pIC50 [1, 6] | other results |
| --- | --- | --- | --- | --- |
| CC(C)c1nc(C(=O)NCc2ccc(NC(=O)N(C)C)cc2)c2n1C(C)CN(c1ccc(C(=O)N(C)C)cc1)C2 (single isomer, unassigned) [Example 538, rel-(R or S)-7-(4-(Dimethylcarbamoyl)phenyl)-N-(4-(3,3-dimethylureido)benzyl)-3-isopropyl-5-methyl-5,6,7,8-tetrahydroimidazo[1,5-a]pyrazine-1-carboxamide] | 9.70 |  |  | pIC50 [1, 3]: 8.30 |
| CC(C)c1nc(C(=O)NCc2ccc(NC(=O)N(C)C)cc2)c2n1C(C)CN(c1ccc(C(=O)N(C)C)cc1)C2 (single isomer, unassigned) [Example 539, rel-(R or S)-7-(4-(Dimethylcarbamoyl)phenyl)-N-(4-(3,3-dimethylureido)benzyl)-3-isopropyl-5-methyl-5,6,7,8-tetrahydroimidazo[1,5-a]pyrazine-1-carboxamide] | 7.89 |  |  | pIC50 [1, 3]: 7.14 |
| CC(C)n1nc(C(=O)NCc2ccc(NC(=O)N(C)C)cc2)c2c1C(C(F)(F)F)CN(c1ccc(C(=O)N(C)C)cn1)C2 (single isomer, unassigned) [Example 547, rel-(R or S)-5-(5-(Dimethylcarbamoyl)pyridin-2-yl)-N-(4-(3,3-dimethylureido)benzyl)-1-isopropyl-7-(trifluoromethyl)-4,5,6,7-tetrahydro-1H-pyrazolo[4,3-c]pyridine-3-carboxamide] | 9.70 |  |  | pIC50 [1, 3]: 8.52 |
| CC(C)n1nc(C(=O)NCc2ccc(NC(=O)N(C)C)cc2)c2c1C(C(F)(F)F)CN(c1ccc(C(=O)N(C)C)cn1)C2 (single isomer, unassigned) [Example 548, rel-(R or S)-5-(5-(Dimethylcarbamoyl)pyridin-2-yl)-N-(4-(3,3-dimethylureido)benzyl)-1-isopropyl-7-(trifluoromethyl)-4,5,6,7-tetrahydro-1H-pyrazolo[4,3-c]pyridine-3-carboxamide] | 7.82 |  |  | pIC50 [1, 3]: 6.70 |
| CC(C)n1nc(C(=O)NCc2ccc(-c3ncc[nH]3)cc2)c2c1[C@H](C)CN(c1ncc(C(=O)N(C)C)cn1)C2 (single isomer, unassigned) [Example 549] | 7.00 |  |  | pIC50 [1, 4]: 5.96 |
| C[C@@H]1CN(c2ccc(C(=O)N(C)C)cn2)Cc2c(C(=O)NCc3ccc(NC(=O)N(C)C)cc3)nn(CC(F)(F)F)c21 (single isomer, unassigned) [Example 550] | 7.96 |  |  | pIC50 [1, 4]: 7.07 |
| C[C@@H]1CN(c2ccc(C(=O)N(C)C)cn2)Cc2c(C(=O)NCc3ccc(NC(=O)N(C)C)cc3)nn(C3(C)CC3)c21 (single isomer, unassigned) [Example 551] | 7.92 |  |  | pIC50 [1, 4]: 6.98 |
| CC(C)n1nc(C(=O)NCc2ccc(NC(=O)N(C)C)cc2)c2c1[C@H](C)CN(c1ncc(C(=O)N(C)C)cn1)C2 (single isomer, unassigned) [Example 552] | 7.47 |  |  | pIC50 [1, 4]: 7.06 |
| C[C@@H]1CN(c2ccc(C(=O)N(C)C)cn2)Cc2c(C(=O)NCc3ccc(NC(=O)N(C)C)cc3)nn(C3CCOCC3)c21 (single isomer, unassigned) [Example 556] | 7.24 |  |  | pIC50 [1, 4]: 6.71 |
| C[C@@H]1CN(c2ccc(C(=O)N(C)C)cn2)Cc2c(C(=O)NCc3ccc(NC(=O)N(C)C)cc3)nn(C3CCC3)c21 (single isomer, unassigned) [Example 557] | 7.82 |  |  | pIC50 [1, 4]: 6.69 |
| CNC1(C)CCN(C(=O)Nc2ccc(CNC(=O)c3nn(C(C)C)c4c3CN(c3ccc(C(=O)N(C)C)cc3)C[C@@H]4C)cc2)C1 (single isomer, unassigned) [Example 713, (S)-5-(4-(dimethylcarbamoyl)phenyl)-1-isopropyl-7-methyl-N-(4-((R*)-3-methyl-3-(methylamino)pyrrolidine-1-carboxamido)benzyl)-4,5,6,7-tetrahydro-1H-pyrazolo[4,3-c]pyridine-3-carboxamide] | 8.52 |  |  | pIC50 ([1]; Homo sapiens, 48 h, human whole blood, IL-13 10 ng/mL): 7.66 |
| CNC1(C)CCN(C(=O)Nc2ccc(CNC(=O)c3nn(C(C)C)c4c3CN(c3ccc(C(=O)N(C)C)cc3)C[C@@H]4C)cc2)C1 (single isomer, unassigned) [Example 714, (S)-5-(4-(dimethylcarbamoyl)phenyl)-1-isopropyl-7-methyl-N-(4-((R*)-3-methyl-3-(methylamino)pyrrolidine-1-carboxamido)benzyl)-4,5,6,7-tetrahydro-1H-pyrazolo[4,3-c]pyridine-3-carboxamide] | 8.40 |  |  | pIC50 ([1]; human whole blood, IL-13 10 ng/mL, 48 hours): 7.55 |
| CC(C)n1nc(C(=O)NCc2ccc(NC(=O)N(C)C)cc2)c2c1CCN(c1ccc(N3CCCC3=O)cn1)C2 [Example 1, N-(4-(3,3-dimethylureido)benzyl)-1-isopropyl-5-(5-(2-oxopyrrolidin-1-yl)pyridin-2-yl)-4,5,6,7-tetrahydro-1H-pyrazolo[4,3-c]pyridine-3-carboxamide] |  | 7.96 | 6.50 |  |
| CC(C)n1nc(C(=O)NCc2ccc(NC(=O)N(C)C)cc2)c2c1CCN(c1ccc(C(=O)N(C)C)cn1)C2 [Example 2, 5-(5-(Dimethylcarbamoyl)pyridin-2-yl)-N-(4-(3,3-dimethylureido)benzyl)-1-isopropyl-4,5,6,7-tetrahydro-1H-pyrazolo[4,3-c]pyridine-3-carboxamide] |  | 8.10 | 7.16 |  |
| CCn1nc(C(=O)NCc2ccc(NC(=O)N(C)C)cc2)c2c1CCN(c1ccc(C(=O)N(C)C)cn1)C2 [Example 3, 5-(5-(Dimethylcarbamoyl)pyridin-2-yl)-N-(4-(3,3-dimethylureido)benzyl)-1-ethyl-4,5,6,7-tetrahydro-1H-pyrazolo[4,3-c]pyridine-3-carboxamide] |  | 8.00 | 6.98 |  |
| CNC(=O)c1ccc(CNC(=O)c2nn(C)c3c2CN(c2ccc(C(=O)N(C)C)cc2)CC3)cc1 [Example 4, 5-(4-(Dimethylcarbamoyl)phenyl)-1-methyl-N-(4-(methylcarbamoyl)benzyl)-4,5,6,7-tetrahydro-1H-pyrazolo[4,3-c]pyridine-3-carboxamide] |  | 6.75 | 5.96 |  |
| Cc1nc(C(=O)NCc2ccc(NC(=O)N(C)C)cc2)c2n1CCN(c1ccc(C(=O)N(C)C)cn1)C2 [Example 5, 7-(5-(Dimethylcarbamoyl)pyridin-2-yl)-N-(4-(3,3-dimethylureido)benzyl)-3-methyl-5,6,7,8-tetrahydroimidazo[1,5-a]pyrazine-1-carboxamide] |  | 6.91 |  | pIC50 ([1]; inhibition of CCL17 secretion in human whole blood, 10 ng/mL IL13, 48 hours): 6.03 |
| CN(C)C(=O)Nc1ccc(CNC(=O)c2nn(C3CC3)c3c2CN(c2ccc(C(=O)N(C)C)cn2)CC3)cc1 [Example 10, 1-Cyclopropyl-5-(5-(dimethylcarbamoyl)pyridin-2-yl)-N-(4-(3,3-dimethylureido)benzyl)-4,5,6,7-tetrahydro-1H-pyrazolo[4,3-c]pyridine-3-carboxamide trifluoroacetate] |  | 7.96 | 7.03 |  |
| CC(C)n1nc(C(=O)NCc2ccc(-c3ncc[nH]3)cc2)c2c1CCN(c1ccc(C(=O)N(C)C)cn1)C2 [Example 11, N-(4-(1H-imidazol-2-yl)benzyl)-5-(5-(dimethylcarbamoyl)pyridin-2-yl)-1-isopropyl-4,5,6,7-tetrahydro-1H-pyrazolo[4,3-c]pyridine-3-carboxamide] |  | 7.80 | 6.69 |  |
| CN(C)C(=O)Nc1ccc(CNC(=O)c2nn(C)c3c2CN(c2ccc(-c4nccn4C)cn2)CC3)cc1 [Example 12, N-(4-(3,3-Dimethylureido)benzyl)-1-methyl-5-(5-(1-methyl-1H-imidazol-2-yl)pyridin-2-yl)-4,5,6,7-tetrahydro-1H-pyrazolo[4,3-c]pyridine-3-carboxamide] |  | 7.80 | 7.03 |  |
| CN(C)C(=O)Nc1ccc(CNC(=O)c2nc(C3CC3)n3c2CN(c2ccc(C(=O)N(C)C)cn2)CC3)cc1 [Example 13, 3-cyclopropyl-7-(5-(dimethylcarbamoyl)pyridin-2-yl)-N-(4-(3,3-dimethylureido)benzyl)-5,6,7,8-tetrahydroimidazo[1,5-a]pyrazine-1-carboxamide] |  | 7.77 | 7.08 |  |

From patent US20250320213A1, “Nitrogen-Containing Heterocyclic Compounds” (Pfizer Inc., priority 2024, published 2025)
